# US12318359B2, “Combination methods and compositions including sleep therapeutics for treating mood” (priority 2012, dated 2025)
# System: depression
# Experiment: Beck Depression Inventory II score, case study of a depressed patient
# Format: in vivo, human
# Settings: person; after three months of fluoxetine monotherapy (20 mg daily raised to 60 mg daily); score at first visit 28
# From the text: “Depression symptoms rating scale” refers to any one of a number of standardized questionnaires, clinical instruments, or symptom inventories utilized to measure symptoms and symptom severity in depression. Such rating scales are often used in clinical studies to define treatment outcomes, based on changes from the study's entry point(s) to endpoint(s). Such depression symptoms rating scales include, but are not limited to, The Quick Inventory of Depressive-Symptomatology Self-Report (QIDS-SR16), the 17-Item Hamilton Rating Scale of Depression (HRSD17), the 30-Item Inventory of Depressive Symptomatology (IDS-C30), or The Montgomery-Asperg Depression Rating Scale (MADRS) and […] Depression Inventory II. Such ratings scales may involve patient self-report or be clinician rated. A 50% or greater reduction in a depression ratings scale score over the course of a clinical trial (starting point to endpoint) is typically considered a favorable response for most depression symptoms rating scales. “Remission” in clinical studies of depression often refers to achieving at, or below, a particular numerical rating score on a depression symptoms rating scale, i.e., less than or equal to 7 on the HRSD17; or less than or equal to 5 on the QIDS-SR16; or less than or equal to 10 on the MADRS or less than or equal to 9 on the Beck Depression Inventory II. […]
compound,measurement,value
CNCCC(Oc1ccc(C(F)(F)F)cc1)c1ccccc1 (stereo not shown) [fluoxetine],Beck Depression Inventory II score,26
